Values quoted from earlier work, collected in publication PMC6467724 (Journal of medicinal chemistry, 2018).

What was measured:
[1] = mice, 40 mg/kg oral dose; cited from earlier work
[2] = cited from earlier work

Q: For `CC[C@@H]([C@H](C)O)n1ncn(-c2ccc(N3CCN(c4ccc(OC[C@@H]5CO[C@@](Cn6cncn6)(c6ccc(F)cc6F)C5)cc4)CC3)cc2)c1=O` [posaconazole], which “Maximal reported plasma concentration” value [1] is on record?
A: The value was 6 µM.

Q: What about the “Maximal concentration detected in humans, fold lower than in mice” value [2] of the same molecule?
A: The value was 5 to 10 fold.
